Data reported in patent US20200222474A1, “COMPOSITIONS AND METHODS FOR INCREASING PHYTOCHEMICAL BIOAVAILABLITY AND BIOACTIVITY” (North Carolina State University, priority 2017, published 2020).

System: L. acidophilus NCFM
Test: RNA-seq transcriptional analysis of L. acidophilus NCFM growing on plant glycosides
Format: cell-based, Lactobacillus acidophilus
[1] = LBA0329 Putative cell division protein, COG D
[2] = LBA0466 Hypothetical protein, COG C
[3] = LBA0500 MSM operon repressor, COG K
[4] = LBA0545 Hypothetical protein, COG L
[5] = LBA0547 Putative site-specific recombinase, COG L
[6] = LBA0573 Putative transcriptional regulator, COG K
[7] = LBA0607 Putative transcriptional regulator, COG K
[8] = LBA0672 Putative phosphate starvation inducible protein stress related, COG J
[9] = LBA0753 Multi-drug-type permease, COG GEPR
[10] = LBA0886 Sugar kinase-putative transcriptional regulator, COG KG
[11] = LBA0887 Hypothetical protein, COG C
[12] = LBA0897 Putative Cro-like protein, COG K
[13] = LBA0910 L-lactate dehydrogenase, COG C
[14] = LBA1021 Putative transcriptional regulator, COG K
[15] = LBA1220 Pyridine mercuric reductase, COG C
[16] = LBA1392 Mucus binding protein precursor Mub, COG J
[17] = LBA1411 Fumarate reductase flavoprotein subunit, COG CS
[18] = LBA1436 Glycerol uptake facilitator protein, COG G
[19] = LBA1457 Galactose-1-epimerase, COG G
[20] = LBA1458 Galactose-1-phosphate uridylyltransferase, COG G
[21] = LBA1462 Beta-galactosidase, COG G
[22] = LBA1463 Lactose permease, COG G
[23] = LBA1465 Transcription repressor of beta-galactosidasegene, COG K
[24] = LBA1467 Beta-galactosidase large subunit (lactase), COG G
[25] = LBA1468 Beta-galactosidase small subunit, COG G

For `O=c1ccc2cc(O[C@@H]3O[C@H](CO)[C@@H](O)[C@H](O)[C@H]3O)c(O)cc2o1` [Esculin], the “Log2 differential normalized TPM ratio compared to glucose” value (LBA0016 Fructokinase, COG KG) was 1.9, the “Log2 differential normalized TPM ratio compared to lactose” value (LBA0016 Fructokinase, COG KG) was 0.7 and the “Transcripts per million (rpm)” value (LBA0016 Fructokinase, COG KG) was 347.8 rpm. The “Log2 differential normalized TPM ratio compared to glucose” value [1] was 2.4, the “Log2 differential normalized TPM ratio compared to lactose” value [1] was 1.9 and the “Transcripts per million (rpm)” value [1] was 88.3 rpm. For the same compound, the “Log2 differential normalized TPM ratio compared to glucose” value [2] was 2, the “Log2 differential normalized TPM ratio compared to lactose” value [2] was 0.5 and the “Transcripts per million (rpm)” value [2] was 408.4 rpm. For the same compound, the “Log2 differential normalized TPM ratio compared to glucose” value [3] was 0.5, the “Log2 differential normalized TPM ratio compared to lactose” value [3] was −1.1 and the “Transcripts per million (rpm)” value [3] was 78.4 rpm. For the same compound, the “Log2 differential normalized TPM ratio compared to glucose” value [4] was 1.9, the “Log2 differential normalized TPM ratio compared to lactose” value [4] was −0.1 and the “Transcripts per million (rpm)” value [4] was 286.5 rpm. The “Log2 differential normalized TPM ratio compared to glucose” value [5] was 2.1, the “Log2 differential normalized TPM ratio compared to lactose” value [5] was 0.4 and the “Transcripts per million (rpm)” value [5] was 50.6 rpm. The “Log2 differential normalized TPM ratio compared to glucose” value [6] was 2.6, the “Log2 differential normalized TPM ratio compared to lactose” value [6] was 2.5 and the “Transcripts per million (rpm)” value [6] was 592 rpm. The “Log2 differential normalized TPM ratio compared to glucose” value [7] was 1.8, the “Log2 differential normalized TPM ratio compared to lactose” value [7] was 1.4 and the “Transcripts per million (rpm)” value [7] was 179.3 rpm. For the same compound, the “Log2 differential normalized TPM ratio compared to glucose” value [8] was 1.8, the “Log2 differential normalized TPM ratio compared to lactose” value [8] was 0.9 and the “Transcripts per million (rpm)” value [8] was 5745.2 rpm. The “Log2 differential normalized TPM ratio compared to glucose” value [9] was 1.6, the “Log2 differential normalized TPM ratio compared to lactose” value [9] was 2.3 and the “Transcripts per million (rpm)” value [9] was 155 rpm. For the same compound, the “Log2 differential normalized TPM ratio compared to glucose” value [10] was 1.2, the “Log2 differential normalized TPM ratio compared to lactose” value [10] was 0.9 and the “Transcripts per million (rpm)” value [10] was 15.5 rpm. The “Log2 differential normalized TPM ratio compared to glucose” value [11] was 1.3, the “Log2 differential normalized TPM ratio compared to lactose” value [11] was 0.1 and the “Transcripts per million (rpm)” value [11] was 151.3 rpm. For the same compound, the “Log2 differential normalized TPM ratio compared to glucose” value [12] was −0.9, the “Log2 differential normalized TPM ratio compared to lactose” value [12] was 1.5 and the “Transcripts per million (rpm)” value [12] was 1.5 rpm. For the same compound, the “Log2 differential normalized TPM ratio compared to glucose” value [13] was 2.7, the “Log2 differential normalized TPM ratio compared to lactose” value [13] was 1.7 and the “Transcripts per million (rpm)” value [13] was 845.1 rpm. The “Log2 differential normalized TPM ratio compared to glucose” value [14] was 2.4, the “Log2 differential normalized TPM ratio compared to lactose” value [14] was 2 and the “Transcripts per million (rpm)” value [14] was 797.3 rpm. For the same compound, the “Log2 differential normalized TPM ratio compared to glucose” value [15] was 2, the “Log2 differential normalized TPM ratio compared to lactose” value [15] was 1.1 and the “Transcripts per million (rpm)” value [15] was 851.3 rpm. For the same compound, the “Log2 differential normalized TPM ratio compared to glucose” value [16] was 2.3, the “Log2 differential normalized TPM ratio compared to lactose” value [16] was 2.5 and the “Transcripts per million (rpm)” value [16] was 537 rpm. The “Log2 differential normalized TPM ratio compared to glucose” value [17] was 1.7, the “Log2 differential normalized TPM ratio compared to lactose” value [17] was 0.6 and the “Transcripts per million (rpm)” value [17] was 7.3 rpm. For the same compound, the “Log2 differential normalized TPM ratio compared to glucose” value [18] was 4.9, the “Log2 differential normalized TPM ratio compared to lactose” value [18] was 1.1 and the “Transcripts per million (rpm)” value [18] was 84.9 rpm. The “Log2 differential normalized TPM ratio compared to glucose” value [19] was 3.2, the “Log2 differential normalized TPM ratio compared to lactose” value [19] was −2.4 and the “Transcripts per million (rpm)” value [19] was 144.7 rpm. For the same compound, the “Log2 differential normalized TPM ratio compared to glucose” value [20] was 3.4, the “Log2 differential normalized TPM ratio compared to lactose” value [20] was −2.3 and the “Transcripts per million (rpm)” value [20] was 144 rpm. The “Log2 differential normalized TPM ratio compared to glucose” value (LBA1459 Galactokinase, COG G) was 2.3, the “Log2 differential normalized TPM ratio compared to lactose” value (LBA1459 Galactokinase, COG G) was −2.4 and the “Transcripts per million (rpm)” value (LBA1459 Galactokinase, COG G) was 123.5 rpm. The “Log2 differential normalized TPM ratio compared to glucose” value [21] was −0.5, the “Log2 differential normalized TPM ratio compared to lactose” value [21] was −6.5 and the “Transcripts per million (rpm)” value [21] was 13 rpm. The “Log2 differential normalized TPM ratio compared to glucose” value [22] was −0.3, the “Log2 differential normalized TPM ratio compared to lactose” value [22] was −5 and the “Transcripts per million (rpm)” value [22] was 47.8 rpm. For the same compound, the “Log2 differential normalized TPM ratio compared to glucose” value (LBA1464 Transposase, COG L) was −1, the “Log2 differential normalized TPM ratio compared to lactose” value (LBA1464 Transposase, COG L) was −3.4 and the “Transcripts per million (rpm)” value (LBA1464 Transposase, COG L) was 94.4 rpm. For the same compound, the “Log2 differential normalized TPM ratio compared to glucose” value [23] was −0.3, the “Log2 differential normalized TPM ratio compared to lactose” value [23] was −3.4 and the “Transcripts per million (rpm)” value [23] was 47.3 rpm. For the same compound, the “Log2 differential normalized TPM ratio compared to glucose” value [24] was 2.2, the “Log2 differential normalized TPM ratio compared to lactose” value [24] was −6.7 and the “Transcripts per million (rpm)” value [24] was 24.1 rpm. For the same compound, the “Log2 differential normalized TPM ratio compared to glucose” value [25] was 0.8 and the “Log2 differential normalized TPM ratio compared to lactose” value [25] was −5.6.
